Experimental data taken from patent US20120171123A1, “USES AND COMPOSITIONS FOR TREATMENT OF RHEUMATOID ARTHRITIS” (priority 2006, published 2012).

Experiments:
[1] = test system: patients with long-standing RA; assay: Study 4: tender and swollen joint counts; format: in vivo, human
Description: At the last visit, 24% of participants had 0 tender joints and 21% of participants had 0 swollen joints.
Efficacy outcomes were evaluated as observed data: DAS28; ACR 20/50/70; Tender Joint Count (TJC); Swollen Joint Count (SJC); and HAQ Disability Index. Baseline demographics and disease characteristics were similar in both Study 4 and Study 5 consistent with moderate to severe RA, as shown below in Table 64: […]

[2] = test system: patients with long-standing RA; conditions: in vivo
[3] = test system: patients with early vs. long-standing RA; conditions: human, in vivo
Description: Study J was a 2-year randomized controlled trial in patients with early RA (disease duration<3 years). Participants in these clinical trials and in other phase Mb studies, were routinely evaluated for safety. Reports of serious adverse events (SAE) were tabulated using MedDRA coding by events per 100-patient-years (E/100PY). SAE rates were compared with respect to disease duration between patients with early (<3 yrs) and long-standing RA.

[4] = test system: patients with RA who had failed prior treatment with infliximab; assay: Adalimumab after failed infliximab: TJC28 and SJC28; format: in vivo, human; conditions: 16 wk
Text: Patients eligible to participate in the study included those with long-standing, moderate to severe RA who had terminated infliximab therapy because of lack or loss of efficacy and/or intolerance/side effects. […] Follow-up visits for safety and efficacy monitoring were scheduled at 2, 8, and 16 weeks. […] Efficacy parameters included TJC28 and SJC28; DAS28; ACR20, ACR50 Response; Moderate EULAR response; and HAQ. Subgroup analysis by reason for discontinuation included: • in case of discontinuation due to lack or loss of efficacy, patients were counted in the corresponding group regardless of additional cause of intolerance. • The subgroup “Discontinuation due to intolerance” was exclusive.

[5] = test system: patients with long-standing RA; assay: Study I: serious adverse events and withdrawals; conditions: 262 patients
patients with active RA = assay: Low-field MRI follow-up of finger joint inflammation (OMERACT-based scores, ESR, DAS28), Study A subset; format: in vivo, human
Description: The method included the following. […] Proximal interphalangeal and metacarpophalangeal joints of the dominant hands of these patients were examined by 0.2-Tesla MRI (C-Scan, Esaote, Italy). Clinical examinations and MRI were performed at baseline and during therapy for a mean period of 86 days (range: 42-126 days). The used sequences were coronal T1-weighted spin-echo; coronal short-tau inversion-recovery gradient-echo; and T1-weighted, 3D gradient-echo before and after administration of Gd-DTPA (0.2 mmol/kg body weight). Erythrocyte sedimentation rate (ESR) and Disease Activity Score 28 (DAS28) were measured at all time points. MRI was evaluated according to an Outcome Measures in Arthritis Clinical Trials or OMERACT-based semiquantitative scoring system. Scores were calculated for erosions (0-5 scale, maximum of 40), synovitis (0-3 scale, maximum of 24), and tenosynovitis (0-3 scale, maximum of 12).

[6] = test system: patients with long-standing RA; assay: Study I open-label extension (adalimumab 40 mg eow + MTX): ACR response; format: in vivo, human; conditions: 5 years, observed
Description: 217 patients who completed the blinded period and participated in the extension trial for a minimum of 6 months were allowed to adjust MTX and/or corticosteroid dosages at the discretion of the principal investigators. Dose tapering was conducted according to standard medical practice with respect to controlling disease activity
Demographic data, age, gender, disease duration, rheumatoid factor and changes in TJC, SJC, CRP, DAS28, HAQ and ACR responses were analysed. Baseline demographics and disease characteristics as well as efficacy measures at last visit (ACR 20/50/70, DAS28, HAQ) were compared between the groups. All patients, including those who discontinued from the trial, were evaluated
Patients were eligible to enroll in Study I if they met ACR criteria for diagnosis of RA. […] Efficacy outcomes were assessed at pre-specified intervals as observed data. Treatment time was calculated beginning with the first subcutaneous injection of adalimumab at any dose, excluding time on placebo. Improvements in signs and symptoms of RA were evaluated for ACR20, ACR50, and ACR70 criteria, 28-joint count Disease Activity Score (DAS28) using the CRP-based formula, and Health Assessment Questionnaire (HAQ). Patients with changes in dosage of MTX or corticosteroids were evaluated for at least 6 months; these patients were eligible for the extension study for at least 6 months and were eligible for discretionary dose tapering. Patients were monitored for adverse events (AEs) during the entire length of the study, from signed informed consent through last visit.

[7] = test system: patients with moderate to severe rheumatoid arthritis; assay: Study C: HAQ; format: in vivo, human
Description: The Canadian Adalimumab Clinical Trial (Study C) was an open-label, multi-center, Phase IIIb study conducted in Canada. […] Efficacy and safety were assessed at baseline, 4, 8, and 12 weeks. Efficacy assessments included tender joint count (TJC 0-28), swollen joint count (SJC 0-28), Disease Activity Score 28 (DAS28), Health Assessment Questionnaire (HAQ), and EULAR response. This was a preliminary analysis of 236 patients. The sample size for each outcome variable is based on the data available at the time of the analysis. The data from this preliminary analysis were compared with the Week 12 data from Study A (N=2008).

[8] = all reasons for infliximab withdrawal (N=37)
[9] = loss of response to infliximab (N=19)
[10] = no response to infliximab (N=13)

## adalimumab: human anti-TNF mAb (HUMIRA, Abbott Laboratories), described in U.S. Pat. No. 6,090,382 as D2E7
[1]; 6 months
  SJC (0-66), % change of mean clinical improvement from baseline: 58%
  TJC (0-68), % change of mean clinical improvement from baseline: 64%
[1]; 12 months
  SJC (0-66), % change of mean clinical improvement from baseline: 67%
  TJC (0-68), % change of mean clinical improvement from baseline: 69%
[1]; 24 months
  SJC (0-66), % change of mean clinical improvement from baseline: 69%
  TJC (0-68), % change of mean clinical improvement from baseline: 72%
[1]; 36 months
  SJC (0-66), % change of mean clinical improvement from baseline: 68%
  TJC (0-68), % change of mean clinical improvement from baseline: 75%
[1]; 48 months
  SJC (0-66), % change of mean clinical improvement from baseline: 61%
  TJC (0-68), % change of mean clinical improvement from baseline: 78%
[1]; end of four years
  median number of swollen joints: 3
  median number of tender joints: 2
[1]; last visit (n=846 analysis)
  participants with 0 swollen joints: 21%
  participants with 0 tender joints: 24%
[2]
  withdrawals for adverse events: 15%
[3]
  Any serious infection: 0.040 N/PY
  Serious infections: 4.8 E/100PY
[4]; [8]
  Change in SJC (0-28), mean change from baseline: −5.2
  Change in TJC (0-28), mean change from baseline: −7.4
[4]; infliximab intolerance (N=5)
  Change in SJC (0-28), mean change from baseline: −7.8
  Change in TJC (0-28), mean change from baseline: −10.0
[4]; [9]
  Change in SJC (0-28), mean change from baseline: −6.1
  Change in TJC (0-28), mean change from baseline: −8.2
[4]; [10]
  Change in SJC (0-28), mean change from baseline: −2.8
  Change in TJC (0-28), mean change from baseline: −5.1
[5]
  withdrawals for lack of efficacy: 8%
Patients with active RA; after therapy (33.0 before)
  mean ESR: 16.2 mm/hr
Patients with active RA; after therapy (baseline 6.1)
  mean DAS28: 3.8
Patients with active RA; during therapy (baseline 3)
  median tenosynovitis MRI score (max 12): 1.5
Patients with active RA; during therapy (baseline 6.5), not significant
  median erosion MRI score (max 40): 4.5
Patients with active RA; during therapy, mean 86 days (baseline 11), n=16
  median synovitis MRI score (max 24): 9
[6]
  ACR20: 76%
  ACR50: 64%
  ACR70: 39%
[7]; 12 weeks
  improvement in HAQ score: −0.55
  patients achieving HAQ<0.5: 28%
[7]; Study C, 12 weeks, preliminary analysis
  HAQ (mean), change from baseline: −0.55 (122)
[7]; week 12 (baseline 1.4)
  mean HAQ: 0.86
